Assay results reported in patent US8945595B2, “Insect repellent and attractants” (The Regents of the University of California, priority 2009, dated 2015).
“Also recorded” adds a separate entry of the source.

Tests used:
[1] = tested on: CO2 sensitive neuron (A neuron) of peg sensillum; assay: single-sensillum electrophysiology of maxillary palp peg sensillum, inhibition of CO2 response; format: cell-based, Culex quinquefasciatus; conditions: 3-sec pre-exposure, 10^-1; 0.25% CO2 impulse every 30-sec over 6-min
Experimental: (§1) FIG. 2 depicts electrophysiology measurements of the peg sensillum on the mosquito maxillary palp. The palp, indicated in brown in the schematic of the mosquito head, has several peg sensilla. Each peg sensilla (grey club-like structure in the center) contains three olfactory neurons A, B and C as indicated, of which the ‘A’ neuron gives a robust and specific increase in frequency of action potentials in response to a stimulus of CO2. Extracellular single-unit recordings are performed by inserting a glass microelectrode into the peg sensilla, and puffing an odor such as CO2 towards the mosquito maxillary palps. The signal is amplified to obtain the trace of action potentials.
(§2) Action potential traces from the peg sensillum of the maxillary palp show spike amplitudes from three neurons, where the highest spike (from neuron A) indicates the CO2 response. A 3-sec stimulus of 0.3% CO2 (indicated by longer black bar), is overlaid with a 0.5-sec stimulus of candidate odors. […]
The recovery of the response to a 0.25% impulse (top) or 0.3% impulse (bottom) of CO2 was measured every 30-sec over a 6-min time period, after an initial 3-sec pre-exposure with (A) butanal (10^−1) (top), or (B) an ‘odor mixture’ consisting of 1-hexanol, pentanal, butanal, and 2,3-butanedione at 10^−2 concentration (bottom). […]

[2] = tested on: CO2-sensitive ab1C neurons; assay: single-sensillum electrophysiology, inhibition of CO2 response of ab1C neurons; format: cell-based, Drosophila; conditions: odourant 10^-2; 3-sec 0.3% CO2 with 1-sec odourant
Source text: Representative traces (top) and mean responses (bottom) from single-sensillum electrophysiology of ab1 sensilla in mutant flies; spikes represent activity of the ab1C neuron. a, 3-sec stimulus of odourant overlaid with a 1-sec application of 0.3% CO2. b, 3-sec stimulus of 0.3% CO2 overlaid with a 1-sec application of odourant. PO=paraffin oil, d4on=2,3-butanedione, 6ol=1-hexanol. n=6, error bars=s.e.m. Spikes per second were counted during the 1-sec stimulus period, and spontaneous activity subtracted. (For data in a and b, T-test, *P<0.001, **P<0.005, ***P<0.01, ****P<0.05) c, ab1C responses to indicated concentrations of CO2 in the presence of solvent (PO), 1-hexanol (6ol) or 2,3-butanedione (d4on). Odourants were tested at 10^−1 dilution. Firing rates were counted in consecutive 0.1-sec bins. n=3, error bars=s.e.m.
Bars indicate stimulus periods for 0.3% CO2, and overlays with 1-hexanol (6ol) or 2,3-butanedione (d4on) at the indicated concentrations. b, Recovery of ab1C responsiveness to a 0.5-sec, 0.3% CO2 stimulus applied every 30-sec after initial treatment with 3-sec stimulus of either d4on (10^−1) or paraffin oil (PO). n=5, error bars=s.e.m., (T-test, *P<0.005, **<0.01, ***P<0.05). c, CO2 response inhibition by structurally related compounds. A 3-sec stimulus of 0.3% CO2 was delivered in combination with 1-sec application of indicated odourant (10^−2) as in a. Percent increase or decrease in mean ab1C response was calculated relative to mean response of paraffin oil. n=5. d, Structures of CO2 and the 4 strongest antagonists. e-f, show mean odourant responses. e, Odourants were tested on ab1C neurons in Or83b2 flies at 10^−2 dilution in paraffin oil. Bars represent values after subtraction of mean response to paraffin oil. n=3. f, Odourants at indicated concentrations were tested on ab3A neuron in wild-type (wt) and ΔHalo (AH) mutants that lack Or22a and Or22b. Bars represent values after subtraction of spontaneous activity. n=5, error bars=s.e.m.
FIG. 16 is a schematic diagram of an odour-delivery system to maintain steady concentration of CO2 in binary mixture experiments. Cartridges were made from Pasteur pipettes with pre-filled cotton wool inserts. […] odorant dissolved in paraffin oil (at specific concentrations) was applied to the cotton wool, and a 1.5 ml disposable tip attached to the open end to make the “odour cartridge”. A controlled “humidified air flow” was generated from a compressed air cylinder by bubbling through water, and passed through a glass tube, and released over the recording arena holding the Drosophila. A C-55 stimulus controller (Syntech) was used to generate an additional activated-charcoal filtered continuous air flow of 5 ml/sec which was delivered into the humidified airstream through a “blank cartridge” with the tip placed through a hole in the tube. To generate controlled odourant stimulus the C-55 stimulus controller was used to switch air flow from the “continuous air flow” to “odor stimulus flow” channel. An additional CO2 stimulus was pulsed through a separate system that delivered controlled pulses (variable 2.5 ml/sec-6.5 ml/sec) into the same humidified airstream, from either a 1%, 5% or 100% cylinder of CO2 (Airgas).
Extracellular single-unit recordings were performed. Odourant stimuli were delivered via Pasteur pipette odour cartridges (see, FIG. 16). Chemicals were of the highest purity available, typically>99% (Sigma-Aldrich). All odourants were diluted in paraffin oil. A controlled volume of air 5 ml/sec was puffed through the odour cartridge containing vapours, and was delivered into a constant humidified airstream of 10 ml/sec that was passed over the fly antenna. […] CO2 stimulus was pulsed through a separate delivery system that delivered controlled pulses (variable 2.5 ml/sec-6.5 ml/sec) into the same humidified airstream, from either a 1%, 5% or 100% tank of CO2 (Airgas). […]

[3] = tested on: CO2 sensitive neuron (A neuron) of peg sensillum; assay: single-sensillum electrophysiology of maxillary palp peg sensillum, inhibition of CO2 response; format: cell-based, Aedes aegypti; conditions: 3-sec pre-exposure, 10^-1; 0.3% CO2 impulse every 30-sec over 6-min
Experimental: as §1
as §2, with “bar),” for “bar), is”, “1-sec” for “0.5-sec”, “odor. CO2 and odor stimuli are applied in the same manner as discussed above.” for “candidate odors.”
The recovery of the response to a 0.3% impulse of CO2 was measured every 30-sec over a 6-min time period, after an initial 3-sec pre-exposure with (A) butanal (10^−1), or (B) an ‘odor mixture’ consisting of 1-hexanol, pentanal, butanal, and 2,3-butanedione at 10^−2 concentration. […]

[4] = tested on: CO2 sensitive A neuron of peg sensillum; assay: activation of CO2 sensitive neuron with a volatile odorant; format: cell-based, Culex quinquefasciatus; conditions: indicated concentrations
Experimental: as §1
(a) Action potential traces from the peg sensillum of the maxillary palp show spike amplitudes from three neurons, where the spikes with the largest amplitude belongs to the CO2 sensitive A neuron. (b) 1 sec of the indicated dilution 2,3-butanedione is puffed to Aedes aegypti. (c) 1 sec of indicated odor is puffed to Anopheles gambiae. (d) butanone and (e) 2,3-butanedione are given to Culex quinquefasciatus at the indicated concentrations. PO=paraffin oil. n=5. Baseline activity subtracted. Error bars indicate SEM.

| SMILES | CO2 response after pre-exposure [1] | CO2 response inhibition by structurally related odourants [2] | CO2 response after pre-exposure [3] | activation of CO2 sensitive neuron [4] |
| --- | --- | --- | --- | --- |
| CCCC=O [butanal] | long term reduction in CO2 response | effective inhibitors | long term reduction in CO2 response |  |
| CCC(C)=O [butanone] |  |  |  | activation; also recorded: activator |
| CCCCC=O [pentanal] |  | effective inhibitors |  |  |
